Test system: T1, human PDE4
T1 construct: PDE4 is partially purified from undifferentiated human monocytic cells (U-937) according to Thorpy et al. 1992 (J. Pharmacol. Exp. Ther. 263: 1195)
Assay: IMAP FP in vitro enzymatic PDE4 inhibition assay
Format: biochemical
Conditions: for IC50: PDE4 partially purified from human monocytic U-937 cells, 90 minutes at room temperature, fluorescence polarization
Procedure: PDE4 specifically hydrolyzes cAMP and releases the product AMP. The potency of PDE inhibition by said agents is determined in an in vitro enzymatic assay. The assay is commercially available (IMAP™ FP assay Molecular Devices Corp.(MDS)) and is optimized for the use of human PDE4. Fluorescently labeled cAMP is hydrolyzed by PDE4 and in a second step, binding of labeled product to a large binding partner allowed product detection by fluorescence polarization (FP) measurements.
PDE4 is partially purified from undifferentiated human monocytic cells (U-937) according to Thorpy et al. 1992 (J. Pharmacol. Exp. Ther. 263: 1195). […] In addition, PDE4 preparations are validated by inhibition studies with PDE4-specific and unspecific PDE inhibitors.
Stock solutions of test compounds are made in DMSO and diluted in assay buffer (10 mM Tris-HCl, 10 mM MgCl2, 0.1% BSA 0.05% NaN3, pH 7.2) to the desired concentrations. The solutions used in the assay contained test compound in assay buffer with 2% DMSO.
10 μl of substrate (at a concentration recommended by the manufacturer) are mixed with 5 μl of appropriately diluted PDE and 5 μl of test compound solution. 5 μl of reaction buffer with 2% DMSO are used for control reactions. […] After incubation for 90 minutes at room temperature, 60 μl of binding reagent are added as specified by the manufacturer. Binding is allowed to proceed for 30 minutes and fluorescence polarization is measured. Dose dependence of PDE inhibition is measured by assaying dilution series of test compounds in duplicates. IC50 values are determined from the measured activities by curve fitting.

Row | IC50 | SMILES | PDE4-inhibiting activity (up to a concentration of 50 μM in the assay used in the examples)
1 | 13400 nM | CCC1OC(=O)C(C)C(OC2CC(C)(OC)C(O)C(C)O2)C(C)C(OC2OC(C)CC(N(C)C)C2O)C(C)(OC)CC(C)C(=O)C(C)C2C(SCCn3c(CCc4cccnc4)nc4c(N)ncnc43)C(=O)OC12C (stereo not drawn) [Example 1] | 
2 | 3900 nM | CC[C@H]1OC(=O)[C@H](C)[C@@H](O[C@H]2C[C@@](C)(OC)[C@@H](O)[C@H](C)O2)[C@H](C)[C@@H](O[C@@H]2O[C@H](C)C[C@H](N(C)C)[C@H]2O)[C@](C)(OC)C[C@@H](C)C(=O)[C@H](C)[C@H]2[C@H](SCCn3c(Nc4cccnc4)nc4c(N)ncnc43)C(=O)O[C@@]21C [Example 2] | 
3 | 3400 nM | CC[C@H]1OC(=O)[C@H](C)[C@@H](O[C@H]2C[C@@](C)(OC)[C@@H](O)[C@H](C)O2)[C@H](C)[C@@H](O[C@@H]2O[C@H](C)C[C@H](N(C)C)[C@H]2O)[C@](C)(OC)C[C@@H](C)C(=O)[C@H](C)[C@H]2[C@H](SCCN(C(=O)c3ccncc3)c3ccc(OC)c(OC4CCCC4)c3)C(=O)O[C@@]21C [Example 3] | 
4 | 280 nM | CC[C@H]1OC(=O)[C@H](C)[C@@H](O[C@H]2C[C@@](C)(OC)[C@@H](O)[C@H](C)O2)[C@H](C)[C@@H](O[C@@H]2O[C@H](C)C[C@H](N(C)C)[C@H]2O)[C@](C)(OC)C[C@@H](C)C(=O)[C@H](C)[C@H]2[C@H](SCCN(Cc3ccncc3)c3ccc(OC)c(OC4CCCC4)c3)C(=O)O[C@@]21C [Example 4] | 
5 | 850 nM | CC[C@H]1OC(=O)[C@H](C)[C@@H](O[C@H]2C[C@@](C)(OC)[C@@H](O)[C@H](C)O2)[C@H](C)[C@@H](O[C@@H]2O[C@H](C)C[C@H](N(C)C)[C@H]2O)[C@](C)(OC)C[C@@H](C)C(=O)[C@H](C)[C@H]2[C@H](SCCN(Cc3cccnc3)c3ccc(OC)c(OC4CCCC4)c3)C(=O)O[C@@]21C [Example 5] | 
6 | 370 nM | CC[C@H]1OC(=O)[C@H](C)[C@@H](O[C@H]2C[C@@](C)(OC)[C@@H](O)[C@H](C)O2)[C@H](C)[C@@H](O[C@@H]2O[C@H](C)C[C@H](N(C)C)[C@H]2O)[C@](C)(OC)C[C@@H](C)C(=O)[C@H](C)[C@H]2[C@H](SCCNc3c(C(=O)Nc4c(Cl)cncc4Cl)cnc4c3cnn4CC)C(=O)O[C@@]21C [Example 6] | 
7 | 7600 nM | CC[C@H]1OC(=O)[C@H](C)[C@@H](O[C@H]2C[C@@](C)(OC)[C@@H](O)[C@H](C)O2)[C@H](C)[C@@H](O[C@@H]2O[C@H](C)C[C@H](N(C)C)[C@H]2O)[C@](C)(OC)C[C@@H](C)C(=O)[C@H](C)[C@H]2[C@H](SCCCc3c(C(=O)Nc4ccncc4)ccc(OC)c3OC)C(=O)O[C@@]21C [Example 7] | 
8 | 4700 nM | CC[C@H]1OC(=O)[C@H](C)[C@@H](O[C@H]2C[C@@](C)(OC)[C@@H](O)[C@H](C)O2)[C@H](C)[C@@H](O[C@@H]2O[C@H](C)C[C@H](N(C)C)[C@H]2O)[C@](C)(OC)C[C@@H](C)C(=O)[C@H](C)[C@H]2[C@H](SCCCn3cnc4c(N)ncc(C(=O)Nc5ccncc5)c43)C(=O)O[C@@]21C [Example 8] | 
9 | 24200 nM | CC[C@H]1OC(=O)[C@H](C)[C@@H](O[C@H]2C[C@@](C)(OC)[C@@H](O)[C@H](C)O2)[C@H](C)[C@@H](O[C@@H]2O[C@H](C)C[C@H](N(C)C)[C@H]2O)[C@](C)(OC)C[C@@H](C)C(=O)[C@H](C)[C@H]2[C@H](SCCCn3cnc4c(N)ncc(C(=O)NCC(=O)OC)c43)C(=O)O[C@@]21C [Example 9] | 
10 | 1000 nM | CC[C@H]1OC(=O)[C@H](C)[C@@H](O[C@H]2C[C@@](C)(OC)[C@@H](O)[C@H](C)O2)[C@H](C)[C@@H](O[C@@H]2O[C@H](C)C[C@H](N(C)C)[C@H]2O)[C@](C)(OC)C[C@@H](C)C(=O)[C@H](C)[C@H]2[C@H](SCCn3cnc4c(N)ncc(C(=O)Nc5ccncc5)c43)C(=O)O[C@@]21C [Example 10] | 
11 | 8 nM | CC[C@H]1OC(=O)[C@H](C)[C@@H](O[C@H]2C[C@@](C)(OC)[C@@H](O)[C@H](C)O2)[C@H](C)[C@@H](O[C@@H]2O[C@H](C)C[C@H](N(C)C)[C@H]2O)[C@](C)(OC)C[C@@H](C)C(=O)[C@H](C)[C@H]2[C@H](SCCn3cnc4c(N)ncc(C(=O)Nc5c(Cl)cncc5Cl)c43)C(=O)O[C@@]21C [Example 11] | 
12 | 3800 nM | CC[C@H]1OC(=O)[C@H](C)[C@@H](O[C@H]2C[C@@](C)(OC)[C@@H](O)[C@H](C)O2)[C@H](C)[C@@H](O[C@@H]2O[C@H](C)C[C@H](N(C)C)[C@H]2O)[C@](C)(OC)C[C@@H](C)C(=O)[C@H](C)[C@H]2[C@H](SCCn3cnc4c(N)nc(NCc5cccnc5)nc43)C(=O)O[C@@]21C [Example 12] | 
13 | 2600 nM | CC[C@H]1OC(=O)[C@H](C)[C@@H](O[C@H]2C[C@@](C)(OC)[C@@H](O)[C@H](C)O2)[C@H](C)[C@@H](O[C@@H]2O[C@H](C)C[C@H](N(C)C)[C@H]2O)[C@](C)(OC)C[C@@H](C)C(=O)[C@H](C)[C@H]2[C@H](SCCn3cnc4c(N)nc(NCc5ccncc5)nc43)C(=O)O[C@@]21C [Example 13] | 
14 | 4.9 nM | CC[C@H]1OC(=O)[C@H](C)[C@@H](O)[C@H](C)[C@@H](O[C@@H]2O[C@H](C)C[C@H](N(C)C)[C@H]2O)[C@](C)(OC)C[C@@H](C)C(=O)[C@H](C)[C@H]2[C@H](SCCn3cnc4c(N)ncc(C(=O)Nc5c(Cl)cncc5Cl)c43)C(=O)O[C@@]21C [Example 14] | 
15 | 480 nM | CC[C@H]1OC(=O)[C@H](C)C(=O)[C@H](C)[C@@H](O[C@@H]2O[C@H](C)C[C@H](N(C)C)[C@H]2O)[C@](C)(OC)C[C@@H](C)C(=O)[C@H](C)[C@H]2[C@H](SCCN(Cc3c(Cl)cncc3Cl)c3ccc(OC)c(OC4CCCC4)c3)C(=O)O[C@@]21C [Example 15] | 
16 | 110 nM | CC[C@H]1OC(=O)[C@H](C)[C@@H](O)[C@H](C)[C@@H](O[C@@H]2O[C@H](C)C[C@H](N(C)C)[C@H]2O)[C@](C)(OC)C[C@@H](C)C(=O)[C@H](C)[C@H]2[C@H](SCCNc3c(C(=O)Nc4c(Cl)cncc4Cl)cnc4c3cnn4CC)C(=O)O[C@@]21C [Example 16] | 
17 |  | CC[C@H]1OC(=O)[C@H](C)[C@@H](O[C@H]2C[C@@](C)(OC)[C@@H](O)[C@H](C)O2)[C@H](C)[C@@H](O[C@@H]2O[C@H](C)C[C@H](N(C)C)[C@H]2O)[C@](C)(OC)C[C@@H](C)C(=O)[C@H](C)[C@H]2[C@H](SC)C(=O)O[C@@]21C [reference compound] | does not show any PDE4-inhibiting activity
18 | 3600 nM | CSCCn1cnc2c(N)ncc(C(=O)Nc3c(Cl)cncc3Cl)c21 [reference compound] | 
